# PubChem BioAssay (NCI)
# Counter-ions that a name gives are not always drawn.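 Five concentrations, 48 hours, 96-well plates. At the TGI there is no net growth.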 *1 amine or outer side, *2 acyl side, *3 side chain or, on linkers, in order; H or OH if unused. Where a SMILES comes first, the peptide text is derived from it. [ ]: non-standard residue; d: D form. The star is where a group is joined. X31 = CC(=O)N(C)SCC(N[*:1])C(=O)[*:2]; X47 = CC(=O)N(C)SCC(N*)/C(O)=N\O; Cbz = O=C(OCc1ccccc1)*; Tfa = O=C(C(F)(F)F)*; Bn = c1ccc(C*)cc1; For = O=C*
# Assays:
# Experiment in all cases: inhibition of tumour cell growth, NCI panel, 48 h
# HT29 colon = tested on: HT29 colon
# SK-MEL-2 melanoma = tested on: SK-MEL-2 melanoma
# OVCAR-4 ovarian = tested on: OVCAR-4 ovarian
# SR leukemia = tested on: SR leukemia
# SW-620 colon = tested on: SW-620 colon
# K-562 leukemia = tested on: K-562 leukemia
# MCF7 breast = tested on: MCF7 breast
# LOX IMVI melanoma = tested on: LOX IMVI melanoma
# CAKI-1 renal = tested on: CAKI-1 renal
# ACHN renal = tested on: ACHN renal
# MOLT-4 leukemia = tested on: MOLT-4 leukemia
# KM12 colon = tested on: KM12 colon
# SK-MEL-28 melanoma = tested on: SK-MEL-28 melanoma
# SNB-19 CNS = tested on: SNB-19 CNS
# M14 melanoma = tested on: M14 melanoma
# A549 NSCLC = tested on: A549 NSCLC
SMILES,TGI (HT29 colon),TGI (SK-MEL-2 melanoma),TGI (OVCAR-4 ovarian),TGI (SR leukemia),TGI (SW-620 colon),TGI (K-562 leukemia),TGI (MCF7 breast),TGI (LOX IMVI melanoma),TGI (CAKI-1 renal),TGI (ACHN renal),TGI (MOLT-4 leukemia),TGI (KM12 colon),TGI (SK-MEL-28 melanoma),TGI (SNB-19 CNS),TGI (M14 melanoma),TGI (A549 NSCLC)
Nc1cc2c3c(c1)Oc1cc(N)cc4c1C3c1c(cc(N)cc1O4)O2,> 63.1 µM,> 81.9 µM,> 100 µM,50 µM,> 100 µM,> 100 µM,> 60 µM,41.6 µM,36.1 µM,> 51.3 µM,> 100 µM,> 84.2 µM,> 100 µM,> 100 µM,> 100 µM,> 100 µM
CC(=O)[C@@H]1[C@@H](OC(=O)CCC(C)COC2OC(CO)C(O)C(O)C2O)C[C@H]2[C@@H]3CC=C4C[C@@H](OC5OC(CO)C(OC6OC(C)C(O)C(O)C6O)C(O)C5OC5OC(C)C(O)C(O)C5O)CC[C@]4(C)[C@H]3CC[C@]12C (stereo partly drawn),–,> 100 µM,> 100 µM,> 100 µM,> 100 µM,> 100 µM,> 100 µM,> 100 µM,> 100 µM,> 100 µM,> 100 µM,> 100 µM,> 100 µM,> 100 µM,> 100 µM,> 100 µM
O=C(Nn1c(-c2ccccc2)nc2ccccc2c1=O)c1ccc(CS)cc1,> 100 µM,–,> 100 µM,> 100 µM,> 100 µM,> 100 µM,> 100 µM,5.38 µM,–,> 100 µM,62.4 µM,> 100 µM,> 100 µM,> 100 µM,> 100 µM,> 100 µM
Nc1ccc(S(=O)(=O)Nc2nnc(S(N)(=O)=O)s2)cc1,> 100 µM,–,> 100 µM,> 100 µM,> 100 µM,–,> 100 µM,> 100 µM,> 100 µM,> 100 µM,> 100 µM,> 100 µM,–,> 100 µM,> 100 µM,> 100 µM
CC(=O)N(C)SCC(NC(=O)C(Cc1ccccc1)NC(=O)OCc1ccccc1)C(=O)NC(Cc1ccccc1)C(=O)NC(Cc1cn(C=O)c2ccccc12)C(=O)NC(CCCCNC(=O)OCc1ccccc1)C(=O)NC(C(=O)NC(CSN(C)C(C)=O)/C(O)=N\O)C(C)OCc1ccccc1 (stereo not drawn) (Cbz-F[X31]FW(For)K(Cbz)T(Bn)-X47; configuration not given here),> 100 µM,> 100 µM,> 100 µM,> 100 µM,> 100 µM,> 100 µM,> 100 µM,> 100 µM,–,> 100 µM,> 100 µM,> 100 µM,> 100 µM,> 100 µM,> 100 µM,> 100 µM
C=C(C)C(=O)O[C@H]1C/C(CO)=C/CCC(=C)C(OC(C)=O)[C@H]2OC(=O)C(=C)[C@H]12 (stereo partly drawn),21.7 µM,35.6 µM,–,17.5 µM,74.2 µM,11.7 µM,22.3 µM,27 µM,21.5 µM,22.9 µM,17.2 µM,33.3 µM,20.6 µM,> 100 µM,12.5 µM,55.8 µM
CCOC(=O)C1(C(N)=O)C(=O)c2ccncc2C1=O (stereo not drawn),> 100 µM,> 100 µM,> 100 µM,> 100 µM,> 100 µM,> 100 µM,> 100 µM,> 100 µM,> 100 µM,> 100 µM,–,> 100 µM,> 100 µM,> 100 µM,> 100 µM,> 100 µM
C/C=C/[C@H]1O[C@@](O)([C@@H](C)[C@H](O)[C@H](C)[C@H]2OC(=O)/C(OC)=C/C(C)=C/[C@@H](C)[C@@H](O)[C@@H](CC)[C@@H](O)[C@H](C)C/C(C)=C/C=C/[C@@H]2OC)C[C@H](OC2CC(O)C(O)C(C)O2)[C@@H]1C (stereo partly drawn),8.03 µM,–,32 µM,0.75 µM,10.4 µM,–,8.58 µM,–,11.9 µM,12.8 µM,< 0.0075 µM,12 µM,14.7 µM,15.7 µM,< 0.0075 µM,12.3 µM
CCCCCCCC1C(C)c2c([nH]c3ccccc23)C2C(=O)N(c3ccc(OC)cc3)C(=O)C21 (stereo not drawn),> 7.4 µM,> 10 µM,5.8 µM,> 10 µM,> 8.94 µM,> 6.39 µM,> 10 µM,–,> 8.37 µM,5.74 µM,> 10 µM,> 10 µM,> 10 µM,9.92 µM,> 9.51 µM,5.33 µM
COc1cc2c(/C=C3/C(=O)N(C)c4ccccc43)c(Cl)[nH]c2cc1C,–,5.31 µM,4.14 µM,10.2 µM,> 100 µM,–,> 23.5 µM,11.4 µM,> 52.8 µM,> 55.9 µM,11.8 µM,–,> 100 µM,14.2 µM,11.5 µM,17 µM
Cc1c(NC(=S)NN)c(=O)n(-c2ccccc2)n1C,> 100 µM,> 100 µM,> 100 µM,> 100 µM,> 100 µM,> 100 µM,> 100 µM,> 100 µM,> 100 µM,–,> 100 µM,> 100 µM,> 100 µM,> 100 µM,> 100 µM,> 100 µM
O=C(O)CC(NC(=O)C(F)(F)F)C(=O)NC(Cc1ccc(O)cc1)C(=O)O (stereo not drawn) (Tfa-Asp-Tyr-OH; configuration not given here),> 50 µM,> 50 µM,–,> 50 µM,> 50 µM,> 50 µM,> 50 µM,–,> 50 µM,> 50 µM,> 50 µM,> 50 µM,> 50 µM,> 50 µM,> 50 µM,> 50 µM
COc1ccc(C2=CC(c3ccccc3)n3nnnc3N2)cc1 (stereo not drawn),> 100 µM,> 100 µM,–,> 100 µM,> 100 µM,> 100 µM,> 100 µM,> 100 µM,> 100 µM,> 100 µM,> 100 µM,> 100 µM,–,> 100 µM,> 100 µM,> 100 µM
Cc1c2c(c(C)n1-c1ccccc1)C(=O)N(CCCCN1CCN(c3ccccc3)CC1)C2=O,10.1 µM,62.6 µM,82.5 µM,27 µM,> 100 µM,37.6 µM,35.8 µM,23.5 µM,> 100 µM,> 100 µM,26.2 µM,> 100 µM,–,> 100 µM,79.7 µM,> 100 µM
CC1CC(C)C(O)C(C2CC(CC(=O)NC3CCCCC3)CC(=O)O2)C1 (stereo not drawn),> 100 µM,–,> 100 µM,> 100 µM,> 100 µM,> 100 µM,> 100 µM,> 100 µM,> 100 µM,> 100 µM,> 100 µM,> 100 µM,> 100 µM,> 100 µM,> 100 µM,> 100 µM
NC(=O)c1nnc2ccc(F)cc2c1N,> 100 µM,> 100 µM,> 100 µM,> 100 µM,> 100 µM,> 100 µM,> 100 µM,> 100 µM,> 100 µM,> 100 µM,> 100 µM,> 100 µM,–,> 100 µM,> 100 µM,> 100 µM
COC(=O)CCc1cc(OC)c(O)c(C(Cc2ccc(OC)c(OC)c2)C(=O)OC)c1 (stereo not drawn),> 100 µM,> 100 µM,> 100 µM,> 100 µM,> 100 µM,> 100 µM,> 100 µM,> 100 µM,–,> 100 µM,> 100 µM,> 100 µM,> 100 µM,> 100 µM,> 100 µM,> 100 µM
Cc1ccc2c3c1O[C@H]1c4[nH]c5ccccc5c4C[C@@]4(O)[C@@H](C2)N(C)CC[C@]314,25.6 µM,35.3 µM,34 µM,41.9 µM,30.1 µM,36.8 µM,30 µM,29.6 µM,34.4 µM,29.5 µM,36.7 µM,33.8 µM,–,34.3 µM,31.1 µM,32.9 µM
Cc1cc(N(CCC#N)CCC#N)ccc1/C(N=Nc1ccc(Cl)cc1)=N\NC(=O)c1cc(Cl)ccc1O,> 100 µM,> 100 µM,> 100 µM,> 100 µM,–,> 100 µM,> 100 µM,–,> 100 µM,> 100 µM,> 100 µM,> 100 µM,–,75.4 µM,> 100 µM,> 100 µM
COC(=O)c1c2c(cc3c1CC1(Cc4cc5c(c(C=O)c4C1)CCCC5)C3)CCCC2 (stereo not drawn),> 100 µM,85.1 µM,> 100 µM,> 100 µM,–,85.3 µM,87.2 µM,> 100 µM,–,> 100 µM,> 100 µM,–,–,–,> 100 µM,> 100 µM
CN(C)C(Cc1cnc[nH]1)C(=O)N1CCCC1C(N)=O (stereo not drawn),> 100 µM,–,> 100 µM,> 100 µM,> 100 µM,> 100 µM,> 100 µM,> 100 µM,> 100 µM,> 100 µM,> 100 µM,> 100 µM,> 100 µM,> 100 µM,> 100 µM,> 100 µM
CC1(C)CCC[C@@]2(C)C1CCC1(C)C(CCc3ccoc3)/C(=C/OS(=O)(=O)O)CCC12 (stereo partly drawn) (tested in a mixture with another compound),> 100 µM,> 100 µM,> 100 µM,> 100 µM,> 100 µM,> 100 µM,–,> 100 µM,> 100 µM,> 100 µM,79.7 µM,> 100 µM,> 100 µM,> 100 µM,> 100 µM,> 100 µM
CC(C)(C)c1cc(CC2C(=O)c3ccccc3C2=O)cc(C(C)(C)C)c1O,13.8 µM,10.8 µM,> 100 µM,16.6 µM,17.1 µM,13.1 µM,> 100 µM,16.2 µM,20.4 µM,> 100 µM,9.56 µM,19.1 µM,–,12 µM,11.6 µM,87.2 µM
Cc1ccc(C2=Nc3cc(C)c(Cl)cc3S(=O)(=O)NN2)cc1,> 100 µM,–,> 100 µM,53 µM,> 100 µM,> 100 µM,> 100 µM,> 100 µM,75.7 µM,> 100 µM,> 100 µM,> 100 µM,> 100 µM,> 100 µM,> 100 µM,> 100 µM
Cc1cc(N(CCC#N)CCC#N)ccc1/C=C1N=C(/C=C\c2ccccc2)OC\1=O,> 100 µM,> 100 µM,> 100 µM,> 100 µM,> 100 µM,> 100 µM,–,> 100 µM,> 100 µM,> 100 µM,> 100 µM,> 100 µM,> 100 µM,> 100 µM,> 100 µM,> 100 µM
O=P1(O)C=CC2(CCCC2)O1,> 100 µM,> 100 µM,> 100 µM,> 100 µM,> 100 µM,> 100 µM,> 100 µM,> 100 µM,–,> 100 µM,–,> 100 µM,> 100 µM,> 100 µM,> 100 µM,> 100 µM
CC(=O)Nc1ccc(Nc2cc(=O)[nH]c(=O)[nH]2)cc1,> 100 µM,–,> 100 µM,> 100 µM,> 100 µM,> 100 µM,> 100 µM,> 100 µM,–,> 100 µM,37.4 µM,> 100 µM,> 100 µM,> 100 µM,> 100 µM,> 100 µM
CCOC(=O)CN1C(=O)c2c(c(C)n(-c3ccccc3)c2C)C1=O,> 100 µM,> 100 µM,> 100 µM,> 100 µM,> 100 µM,> 100 µM,> 100 µM,–,> 100 µM,> 100 µM,> 100 µM,> 100 µM,> 100 µM,> 100 µM,> 100 µM,> 100 µM
Cc1cccc(C(C)C)c1NC(=O)C(=O)CC(=O)c1sc(Nc2ccccc2Cl)nc1C,–,> 100 µM,> 100 µM,> 100 µM,> 100 µM,–,> 100 µM,> 100 µM,> 100 µM,> 100 µM,> 100 µM,> 100 µM,> 100 µM,> 100 µM,> 100 µM,> 100 µM
